Key:
[1] = molecular target: JAK1 kinase activity on STAT3 in TF1 cells (Homo sapiens, UniProt P23458); assay: pSTAT3 cell assay (MSD; TF1 cells, 30 ng/mL IL-6 stimulation); format: cell-based; settings: 30 ng/mL IL-6, 15 minutes
Procedure: The inhibitory potency of compounds of the disclosure against the JAK1 kinase activity on STAT3 was evaluated using an MSD-platform plate-based assay format. TF1 cells natively expressing STAT3 and JAK1 were serum-starved to reduce background phosphorylation levels, then cells were treated with compounds of the disclosure for 1 hour with a 10-point four-fold dilution series starting at 10 μM. Cells were then stimulated with 30 ng/mL interleukin 6 (IL-6) for 15 minutes. Cells were lysed and pSTAT3 levels were quantitated using an MSD plate-based assay with anti-STAT3 antibodies. The data were normalized and the percent activity versus log concentration of compound was fitted with a 4-parameter logistic model to generate IC50 curves.

[2] = molecular target: T1, human JAK3 kinase domain (JH1) (Homo sapiens, UniProt P52333); assay: JH1 biochemical assay for JAK3 (ADP-Glo kinase assay, recombinant JH1 catalytic domain, JAK3-974 peptide, 4 μM ATP)
T1 construct: recombinantly generated catalytic kinase (also known as JH1) domain of human JAK1, JAK2, JAK3 and TYK2
Outline: (§1)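 Enzyme levels: JAK1 4 nM, JAK2 0.2 nM, JAK3 0.3 nM, TYK2 2 nM. Peptide substrate at 50 μM. Reactions ran 100 minutes; ADP formed was converted to luciferase luminescence after ATP depletion. Compounds tested from 10 μM or 1 μM top, 11-point 3-fold dilutions; IC50 from 4-parameter logistic fit of normalized percent activity.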

[3] = molecular target: Tyk2 kinase activity on STAT4 in NK92 cells (Homo sapiens, UniProt P29597); assay: pSTAT4 cell assay (MSD; NK92 cells, 30 ng/mL IL2 stimulation); format: cell-based; settings: 30 ng/mL IL2, 15 minutes
Procedure: The inhibitory potency of compounds of the disclosure against the Tyk2 kinase activity on STAT4 was evaluated using an MSD-platform plate-based assay format. NK92 cells natively expressing STAT4 and Tyk2 were serum-starved to reduce background phosphorylation levels, then cells were treated compounds for 1 hr with a 10-point four-fold dilution series starting at 10 μM. Cells were then stimulated with 30 ng/mL IL2 for 15 minutes. Cells were lysed and […] levels were quantitated using an MSD plate-based assay with anti-STAT4 antibodies. The data were normalized and the percent activity versus log concentration of compound were fitted with a 4-parameter logistic model to generate to generate IC50 curves.

[4] = molecular target: JAK2 kinase activity on STAT5 in TF1 cells (Homo sapiens, UniProt O60674); assay: pSTAT5 cell assay (MSD; TF1 cells, 30 ng/mL IL-3 stimulation); format: cell-based; settings: 30 ng/mL IL-3, 15 minutes
Procedure: The inhibitory potency of compounds of the disclosure against the JAK2 kinase activity on STAT5 was evaluated using an MSD-platform plate-based assay format. TF1 cells natively expressing STAT5 and JAK2 were serum-starved to reduce background phosphorylation levels, then cells were treated with compounds of disclosure for 1 hour with a 10-point four-fold dilution series starting at 10 μM. Cells were then stimulated with 30 ng/mL IL-3 for 15 minutes. Cells were then lysed and pSTAT5 levels were quantitated using an MSD plate-based assay with anti-STAT5 antibodies. The data were normalized and the percent activity versus log concentration of compound was fitted with a 4-parameter logistic model to generate a curve and an IC50 value.

[5] = molecular target: T2, human JAK1 kinase domain (JH1) (Homo sapiens, UniProt P23458); assay: JH1 biochemical assay for JAK1 (ADP-Glo kinase assay, recombinant JH1 catalytic domain, JAK3-342 peptide, 35 μM ATP)
T2 construct: recombinantly generated catalytic kinase (also known as JH1) domain of human JAK1, JAK2, JAK3 and TYK2
Outline: as §1

[6] = molecular target: T3, human JAK2 kinase domain (JH1) (Homo sapiens, UniProt O60674); assay: JH1 biochemical assay for JAK2 (ADP-Glo kinase assay, recombinant JH1 catalytic domain, JAK3-974 peptide, 15 μM ATP)
T3 construct: recombinantly generated catalytic kinase (also known as JH1) domain of human JAK1, JAK2, JAK3 and TYK2
Outline: as §1

[7] = molecular target: T4, human TYK2 kinase domain (JH1) (Homo sapiens, UniProt P29597); assay: JH1 biochemical assay for TYK2 (ADP-Glo kinase assay, recombinant JH1 catalytic domain, JAK3-974 peptide, 10 μM ATP)
T4 construct: recombinantly generated catalytic kinase (also known as JH1) domain of human JAK1, JAK2, JAK3 and TYK2
T4 sequence (P29597 897-1176 limits assumed): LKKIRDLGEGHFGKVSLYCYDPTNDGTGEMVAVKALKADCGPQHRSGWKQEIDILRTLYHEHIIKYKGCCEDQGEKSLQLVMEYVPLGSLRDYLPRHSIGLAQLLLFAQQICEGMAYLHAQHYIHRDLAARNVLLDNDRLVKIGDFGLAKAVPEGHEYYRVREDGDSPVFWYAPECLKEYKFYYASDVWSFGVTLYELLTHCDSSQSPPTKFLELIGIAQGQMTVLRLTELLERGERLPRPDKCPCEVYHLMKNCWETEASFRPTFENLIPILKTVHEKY
Outline: as §1

JAK2 kinase activity on STAT5 in TF1 cells, sequence (O60674 whole entry): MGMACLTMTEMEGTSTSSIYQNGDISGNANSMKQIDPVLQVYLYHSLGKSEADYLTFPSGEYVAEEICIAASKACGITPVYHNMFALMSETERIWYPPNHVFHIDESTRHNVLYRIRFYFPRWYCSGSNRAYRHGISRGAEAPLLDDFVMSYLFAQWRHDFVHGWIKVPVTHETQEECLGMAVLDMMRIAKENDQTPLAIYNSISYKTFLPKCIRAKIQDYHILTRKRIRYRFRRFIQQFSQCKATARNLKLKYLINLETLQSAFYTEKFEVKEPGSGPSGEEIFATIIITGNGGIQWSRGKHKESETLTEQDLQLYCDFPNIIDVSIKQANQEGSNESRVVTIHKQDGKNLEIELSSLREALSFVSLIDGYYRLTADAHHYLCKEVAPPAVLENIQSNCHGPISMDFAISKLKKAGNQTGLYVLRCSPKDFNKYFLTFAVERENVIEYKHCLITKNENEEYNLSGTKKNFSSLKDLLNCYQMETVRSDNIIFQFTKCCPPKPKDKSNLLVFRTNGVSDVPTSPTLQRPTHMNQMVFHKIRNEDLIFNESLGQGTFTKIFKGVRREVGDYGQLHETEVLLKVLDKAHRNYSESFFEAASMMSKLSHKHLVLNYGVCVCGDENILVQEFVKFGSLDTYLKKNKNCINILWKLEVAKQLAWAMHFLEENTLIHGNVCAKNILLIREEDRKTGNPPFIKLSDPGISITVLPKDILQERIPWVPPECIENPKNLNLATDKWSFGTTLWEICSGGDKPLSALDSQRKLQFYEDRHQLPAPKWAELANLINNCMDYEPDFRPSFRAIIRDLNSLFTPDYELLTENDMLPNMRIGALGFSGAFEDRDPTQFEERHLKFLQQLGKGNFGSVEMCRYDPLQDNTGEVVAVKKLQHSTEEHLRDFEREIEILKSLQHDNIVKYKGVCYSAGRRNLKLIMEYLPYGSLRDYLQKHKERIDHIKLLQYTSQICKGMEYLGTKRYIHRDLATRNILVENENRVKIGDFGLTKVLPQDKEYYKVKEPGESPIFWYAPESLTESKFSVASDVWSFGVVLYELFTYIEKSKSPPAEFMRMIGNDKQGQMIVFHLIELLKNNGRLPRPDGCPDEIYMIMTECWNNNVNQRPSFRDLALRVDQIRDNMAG
JAK1 kinase activity on STAT3 in TF1 cells, sequence (P23458 whole entry): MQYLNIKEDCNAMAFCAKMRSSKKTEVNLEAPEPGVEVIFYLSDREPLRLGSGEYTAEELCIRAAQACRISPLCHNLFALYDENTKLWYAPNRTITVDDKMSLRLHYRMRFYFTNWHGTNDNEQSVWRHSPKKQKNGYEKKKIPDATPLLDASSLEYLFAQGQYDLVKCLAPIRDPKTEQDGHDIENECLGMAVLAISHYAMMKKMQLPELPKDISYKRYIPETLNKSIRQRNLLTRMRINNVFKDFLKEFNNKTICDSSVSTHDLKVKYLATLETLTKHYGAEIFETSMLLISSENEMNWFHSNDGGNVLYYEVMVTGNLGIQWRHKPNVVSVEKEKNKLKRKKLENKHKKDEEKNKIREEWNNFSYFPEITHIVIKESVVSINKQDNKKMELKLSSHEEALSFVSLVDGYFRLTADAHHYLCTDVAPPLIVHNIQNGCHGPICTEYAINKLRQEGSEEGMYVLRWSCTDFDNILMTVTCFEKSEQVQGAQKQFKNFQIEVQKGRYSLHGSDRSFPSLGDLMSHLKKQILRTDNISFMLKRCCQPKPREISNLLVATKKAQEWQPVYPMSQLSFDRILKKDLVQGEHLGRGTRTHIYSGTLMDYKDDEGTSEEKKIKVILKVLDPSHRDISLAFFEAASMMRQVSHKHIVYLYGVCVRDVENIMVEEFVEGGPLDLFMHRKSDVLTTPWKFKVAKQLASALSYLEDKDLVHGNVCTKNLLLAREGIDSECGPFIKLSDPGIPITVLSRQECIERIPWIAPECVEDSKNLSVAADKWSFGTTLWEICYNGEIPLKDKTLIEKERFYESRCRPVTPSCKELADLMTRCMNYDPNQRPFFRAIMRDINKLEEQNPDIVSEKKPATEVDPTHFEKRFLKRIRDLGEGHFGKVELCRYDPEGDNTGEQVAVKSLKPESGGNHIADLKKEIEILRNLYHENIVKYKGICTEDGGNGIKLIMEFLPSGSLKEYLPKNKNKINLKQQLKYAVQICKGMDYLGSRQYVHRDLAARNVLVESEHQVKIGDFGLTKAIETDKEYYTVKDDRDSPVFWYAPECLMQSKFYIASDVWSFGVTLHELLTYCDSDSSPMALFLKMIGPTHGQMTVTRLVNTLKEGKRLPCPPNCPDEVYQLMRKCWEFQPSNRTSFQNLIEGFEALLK
T2 sequence (P23458 875-1153 limits assumed): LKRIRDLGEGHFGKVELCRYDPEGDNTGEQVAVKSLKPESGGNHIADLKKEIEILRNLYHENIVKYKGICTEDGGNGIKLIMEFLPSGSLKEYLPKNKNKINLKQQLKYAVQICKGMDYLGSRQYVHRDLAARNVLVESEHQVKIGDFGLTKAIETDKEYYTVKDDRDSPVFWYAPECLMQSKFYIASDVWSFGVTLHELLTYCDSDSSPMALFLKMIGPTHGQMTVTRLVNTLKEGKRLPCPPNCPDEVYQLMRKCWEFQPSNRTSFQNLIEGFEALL
Tyk2 kinase activity on STAT4 in NK92 cells, sequence (P29597 whole entry): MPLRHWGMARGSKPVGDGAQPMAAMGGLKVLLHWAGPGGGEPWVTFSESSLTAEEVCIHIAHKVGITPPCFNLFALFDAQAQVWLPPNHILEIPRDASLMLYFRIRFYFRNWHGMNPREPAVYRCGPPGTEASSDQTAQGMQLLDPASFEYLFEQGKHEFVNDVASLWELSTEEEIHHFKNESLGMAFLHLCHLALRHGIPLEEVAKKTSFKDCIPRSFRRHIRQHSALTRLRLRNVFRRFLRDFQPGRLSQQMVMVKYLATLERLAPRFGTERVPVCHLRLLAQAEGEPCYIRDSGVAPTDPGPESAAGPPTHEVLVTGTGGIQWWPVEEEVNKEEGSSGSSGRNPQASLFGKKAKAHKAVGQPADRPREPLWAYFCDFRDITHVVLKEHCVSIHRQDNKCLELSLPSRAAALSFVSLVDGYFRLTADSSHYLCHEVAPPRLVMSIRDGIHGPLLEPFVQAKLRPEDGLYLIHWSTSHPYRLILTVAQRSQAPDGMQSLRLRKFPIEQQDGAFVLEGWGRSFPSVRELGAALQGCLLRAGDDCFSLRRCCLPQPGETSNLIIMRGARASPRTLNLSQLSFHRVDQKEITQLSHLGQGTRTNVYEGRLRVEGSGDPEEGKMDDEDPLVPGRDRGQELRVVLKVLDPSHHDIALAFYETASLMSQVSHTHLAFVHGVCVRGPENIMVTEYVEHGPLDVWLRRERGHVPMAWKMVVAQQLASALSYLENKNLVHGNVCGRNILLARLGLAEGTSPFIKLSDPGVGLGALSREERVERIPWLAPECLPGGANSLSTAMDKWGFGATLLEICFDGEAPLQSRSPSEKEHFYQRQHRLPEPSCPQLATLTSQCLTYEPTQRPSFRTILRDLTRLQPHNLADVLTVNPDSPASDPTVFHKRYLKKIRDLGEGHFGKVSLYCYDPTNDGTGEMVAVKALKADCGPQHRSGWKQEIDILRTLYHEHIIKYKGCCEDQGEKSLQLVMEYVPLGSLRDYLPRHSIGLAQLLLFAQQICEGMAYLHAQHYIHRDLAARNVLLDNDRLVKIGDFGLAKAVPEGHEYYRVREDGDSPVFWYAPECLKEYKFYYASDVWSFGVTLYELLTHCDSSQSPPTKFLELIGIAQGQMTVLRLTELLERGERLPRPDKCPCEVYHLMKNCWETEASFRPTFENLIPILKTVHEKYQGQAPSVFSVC
T3 sequence (O60674 849-1124 limits assumed): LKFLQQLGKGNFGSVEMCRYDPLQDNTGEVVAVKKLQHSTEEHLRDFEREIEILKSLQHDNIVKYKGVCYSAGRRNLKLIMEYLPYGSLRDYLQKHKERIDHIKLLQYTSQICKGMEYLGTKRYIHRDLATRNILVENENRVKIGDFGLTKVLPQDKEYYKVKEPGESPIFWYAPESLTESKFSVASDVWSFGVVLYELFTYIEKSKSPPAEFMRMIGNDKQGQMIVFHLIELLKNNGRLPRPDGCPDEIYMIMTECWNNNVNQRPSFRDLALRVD
T1 sequence (P52333 822-1111 limits assumed): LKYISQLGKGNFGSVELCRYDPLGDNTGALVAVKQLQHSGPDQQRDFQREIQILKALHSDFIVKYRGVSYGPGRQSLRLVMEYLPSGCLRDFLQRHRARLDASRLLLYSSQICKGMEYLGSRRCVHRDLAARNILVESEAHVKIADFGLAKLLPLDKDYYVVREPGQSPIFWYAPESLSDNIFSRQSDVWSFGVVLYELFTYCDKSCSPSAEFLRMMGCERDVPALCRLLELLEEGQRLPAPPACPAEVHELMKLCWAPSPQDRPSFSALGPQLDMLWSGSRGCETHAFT

SMILES	IC50 [1] [nM]	IC50 ([2]; JH1 kinase domain, ADP-Glo) [nM]	IC50 [3] [nM]	IC50 [4] [nM]	IC50 ([5]; JH1 kinase domain, ADP-Glo) [nM]	IC50 ([6]; JH1 kinase domain, ADP-Glo) [nM]	IC50 ([7]; JH1 kinase domain, ADP-Glo) [nM]	IC50 ([2]; JAK3 JH1, ADP-Glo) [nM]	IC50 ([5]; JAK1 JH1, ADP-Glo) [nM]	IC50 ([6]; JAK2 JH1, ADP-Glo) [nM]	IC50 ([7]; TYK2 JH1, ADP-Glo) [nM]
C[C@@H]1CN(c2ccnn3cc(-c4ccc5cncn5c4)cc23)C(=O)[C@]1(C#N)C1CC1 [Example 51, (3R,4S)-3-cyclopropyl-1-(6-(imidazo[1,5-a]pyridin-6-yl)pyrrolo[1,2-b]pyridazin-4-yl)-4-methyl-2-oxopyrrolidine-3-carbonitrile]	1000 to 5000	100 to 1000	50 to 100	> 10000	< 100	100 to 1000	5 to 20				
[2H]C([2H])([2H])n1cc(-c2cn3ncc(F)c3c(N3C[C@@H](C)[C@@](C#N)(C4CC4)C3=O)n2)cn1 [Example 211, (3R,4S)-3-cyclopropyl-1-(3-fluoro-6-(1-(methyl-d3)-1H-pyrazol-4-yl)pyrazolo[1,5-a]pyrazin-4-yl)-4-methyl-2-oxopyrrolidine-3-carbonitrile]	1000 to 5000	< 100	50 to 100	1000 to 5000	< 100	100 to 1000	< 5				
CCn1cc(-n2nc(N3C[C@@H](C)[C@@](C#N)(C4CC4)C3=O)c3ccncc32)cn1 [Example 277, (3R,4S)-3-cyclopropyl-1-(1-(1-ethyl-1H-pyrazol-4-yl)-1H-pyrazolo[3,4-c]pyridin-3-yl)-4-methyl-2-oxopyrrolidine-3-carbonitrile]	1000 to 5000		> 100	5000 to 10000				100 to 1000	100 to 1000	100 to 1000	< 5
CC(C)n1cc(-n2nc(N3C[C@@H](C)[C@@](C#N)(C4CC4)C3=O)c3ccncc32)cn1 [Example 280, (3R,4S)-3-cyclopropyl-1-(1-(1-isopropyl-1H-pyrazol-4-yl)-1H-pyrazolo[3,4-c]pyridin-3-yl)-4-methyl-2-oxopyrrolidine-3-carbonitrile]	1000 to 5000		> 100	> 10000				100 to 1000	100 to 1000	100 to 1000	< 5
Cc1cncc(-c2cn3nccc3c(N3C[C@@H](C)[C@@](C#N)(C4CC4)C3=O)n2)c1 [Example 236, (3R,4S)-3-cyclopropyl-4-methyl-1-(6-(5-methylpyridin-3-yl)pyrazolo[1,5-a]pyrazin-4-yl)-2-oxopyrrolidine-3-carbonitrile]	1000 to 5000		> 100	5000 to 10000				100 to 1000	100 to 1000	100 to 1000	5 to 20
C[C@@H]1CN(c2ccnn3cc(-c4cnn(C)c4)cc23)C(=O)[C@]1(C#N)C1CC1 [Example 34, (3R,4S)-3-cyclopropyl-4-methyl-1-(6-(1-methyl-1H-pyrazol-4-yl)pyrrolo[1,2-b]pyridazin-4-yl)-2-oxopyrrolidine-3-carbonitrile]	1000 to 5000	100 to 1000	20 to 50	5000 to 10000	100 to 1000	100 to 1000	< 5				
C[C@@H]1CN(c2nc(-c3cnc4c(c3)CC(=O)N4)cn3nccc23)C(=O)[C@]1(C#N)C1CC1 [Example 205, (3R,4S)-3-cyclopropyl-4-methyl-2-oxo-1-(6-(2-oxo-2,3-dihydro-1H-pyrrolo[2,3-b]pyridin-5-yl)pyrazolo[1,5-a]pyrazin-4-yl)pyrrolidine-3-carbonitrile]	1000 to 5000	< 100	> 100	5000 to 10000	< 100	< 100	< 5				
C[C@@H]1CN(c2ccnn3cc(-c4ccnc(C(F)(F)F)c4)cc23)C(=O)[C@]1(C#N)C1CC1 [Example 69, (3R,4S)-3-cyclopropyl-4-methyl-2-oxo-1-(6-(2-(trifluoromethyl)pyridin-4-yl)pyrrolo[1,2-b]pyridazin-4-yl)pyrrolidine-3-carbonitrile]	5000 to 10000	100 to 1000	> 100	> 10000	100 to 1000	1000 to 5000	5 to 20				

Source: US20260297085A1, “1 H-PYRROLO[2,3-B]PYRIDIN-4-YL]-2-OXOPYRROLIDINE-3-CARBONITRILE DERIVATIVES AS TYROSINE KINASE 2 (TYK2) INHIBITORS FOR THE TREATMENT OF INFLAMMATORY DISEASES” (BIOGEN MA INC., priority 2023, published 2026)
